The values that follow come from US8569447B2, “Cell-permeable peptide inhibitors of the JNK signal transduction pathway” (Xigen SA, priority 2003, dated 2013).

The target in one data set is recombinant JNK1α1 (Homo sapiens, UniProt P45983). Briefly: In vitro kinase assay with recombinant JNK1α1. In kind it is biochemical. As to the method:
Cellular extracts were prepared by scraping cells in lysis buffer (20 mM Tris-acetate, 1 mM EGTA, 1% Triton X-100, 10 mM p-nitrophenyl-phosphate, 5 mM sodium pyrophosphate, 10 mM β-glycerophosphate, 1 mM dithiothreitol). 25 μg samples were incubated for 1 hour at room temperature with 1 μg GST-c-Jun (amino acid residues 1-89) and 10 μL glutathione-agarose beads (Sigma). The beads were washed four times and then resuspended in the lysis buffer described above. In vitro kinase assays were then performed using recombinant JNK1α1 and 0.5 μg of a substrate selected from the group consisting of GST-fusion proteins (e.g., GST-Jun and GST-Elk1 fusion proteins), casein and histone (Sigma). Reactions were initiated with 10 mM MgCl2 and 10 μM ATP in the presence of 5 μCi ^33P-ATP, and were incubated for 30 minutes at 30° C. The reaction products were separated by SDS-PAGE, and the gels were dried and then exposed to X-ray films (Kodak).
The terms “P-Jun” and “P-Elk1,” as used herein, refer to the radiolabeled (i.e., phosphorylated with ^33P-ATP) forms of GST-Jun and GST-Elk1 substrates, respectively.

A short description of data set [1]: Rotarod test of motor coordination. To be noted: for Median Latency to Fall: 1 mg/Kg i.p. In kind it is in vivo, mice. As to the method: Typically, the high toxicity of other neuroprotective compounds has severely limited their clinical use. (See Gladstone et al., Stroke, 33:2123-36 (2002), incorporated by reference in its entirety). The ability of mice to maintain themselves on horizontal turning rotarod was used as criterion for possible side effects of different doses of D-JNKI and of a therapeutic dose of MK-801 (1 mg/Kg, a standard therapeutic dose). […] (11 and 110 mg/Kg) and icv injections of D-JNKI (2 μl containing 15.7 ng or 157 ng of D-JNKI). The i.p. injection of MK-801 (1 mg/Kg) was used as a control compound during this assessment procedure.
The mice were trained the day before and in the morning of the experimental day, in order to reduce the variability between subjects. Both training and test sessions were identical for control and injected mice. […] The mice were placed on the rotarod, which was programmed to accelerate uniformly from 4 to 40 rpm. The latency to falls for each mouse tested was recorded. The results of this assessment using the rotarod method are presented in Table 2 as median latency to fall (measured in seconds).

The test system of the next data set is JNK. To be noted: JBDs of IB1 and IB2; cited from earlier work.
A further data set relates to βTC-3 cell cultures. The experiment in a line: Cellular import of fluorescein-labeled peptides. To be noted: 1 μM, βTC-3 cells. In kind it is cell-based. As to the method:
The ability of the L- and D-enantiomeric forms of TAT, TAT-IB1 and TAT-IB2 peptides (“TAT-IB peptides”) to enter cells were evaluated.
Labeled peptides (1 μM) were added to βTC-3 cell cultures, which were maintained as described in Example 3. At predetermined times, cells were washed with PBS and fixed for five minutes in ice-cold methanol-acetone (1:1) before being examined under a fluorescence microscope. Fluorescein-labeled BSA (1 μM, 12 moles/mole BSA) was used as a control.

recombinant JNK1α1, sequence (P45983 1-384 isoform P45983-2, species assumed): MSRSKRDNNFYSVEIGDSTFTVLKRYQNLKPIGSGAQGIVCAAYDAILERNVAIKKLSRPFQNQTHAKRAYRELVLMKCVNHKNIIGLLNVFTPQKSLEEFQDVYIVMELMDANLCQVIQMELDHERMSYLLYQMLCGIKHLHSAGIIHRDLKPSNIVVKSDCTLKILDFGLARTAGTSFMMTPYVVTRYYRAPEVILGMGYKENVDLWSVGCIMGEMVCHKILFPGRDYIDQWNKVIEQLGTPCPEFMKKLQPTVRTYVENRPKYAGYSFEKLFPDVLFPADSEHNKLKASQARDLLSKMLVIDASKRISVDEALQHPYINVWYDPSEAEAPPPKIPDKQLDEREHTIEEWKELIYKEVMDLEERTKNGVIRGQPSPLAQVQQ

Regarding `N=C(N)NCCC[C@H](NC(=O)[C@H](CCCNC(=N)N)NC(=O)[C@H](CCCNC(=N)N)NC(=O)[C@H](CCC(N)=O)NC(=O)[C@H](CCCNC(=N)N)NC(=O)[C@H](CCCNC(=N)N)NC(=O)[C@H](CCCCN)NC(=O)[C@H](CCCCN)NC(=O)[C@H](CCCNC(=N)N)NC(=O)CN)C(=O)O` [L-TAT, reference compound], the “concentration at which the TAT sequence induces nonspecific precipitation of the proteins in the extracts” value on recombinant JNK1α1 is recorded as “greater than 50 μM”.

In the case of `C[C@]12N[C@H](Cc3ccccc31)c1ccccc12` [MK-801, reference compound], the “Median Latency to Fall” value in data set [1] (1 day) is 174 s; in data set [1] (6 days), 233 s; in data set [1] (12 days) it was 292 s; in data set [1] (+3 hours), “incapable”; in data set [1] (−1 hour), 226 s. In addition, the lethality entry in data set [1] (10-fold higher dose of MK-801) is “killed all the mice”. Further, the “motor coordination (rotarod), overall” value in data set [1] (doses of Table 2: D-JNKI i.p. and icv, MK-801 1 mg/Kg i.p.) was “dramatic impairment of motor coordination”. In data set [1] (lower dose of MK-801 (1 mg/Kg i.p.)), the “time after which side effects essentially disappear” value was found to be 24 h.

“IPSPSVEEPH KHRPTTLRLT TLGAQDS (IPSPSVEEPHKHRPTTLRLTTLGAQDS) [IB2-long]”: the “efficiency in binding JNK relative to c-Jun or ATF2” value in the data set on JNK is “approximately 100 fold”.

Consider “PGTGCGDTYR PKRPTTLNLF PQVPRSQDT (PGTGCGDTYRPKRPTTLNLFPQVPRSQDT) [IB1-long]”, for which, in the data set with JNK, the “efficiency in binding JNK relative to c-Jun or ATF2” value was “approximately 100 fold”.

Take “fluorescein labeled bovine serum albumin: fluorescein labeled BSA (12 moles fluorescein/mole BSA) used as a control”: the entry into cells entry in the data set with βTC-3 cell cultures is given as “did not enter the cells”.
